From patent US8449930B2, “Drug or dermatological composition containing an avocado peptide extract for treating and preventing pruritus” (Laboratoires Expanscience, priority 2008, dated 2013)

Tests used:
Assay type in all cases: cell-based
[1] = system: Rat peritoneal mast cells; assay: Release of histamine by mast cells induced by substance P
Procedure: (§1) The studies presented below were carried out on rat peritoneal mast cells. These cells have the same features as cutaneous mast cells and thus constitute an experimental model representative of human skin.
Rat peritoneal mast cells (10,000 cells in suspension/250 μl Tyrode's buffer) were incubated for […] at 37° C. in the presence or absence of 0.05%, 0.5% and 1% (w/v) avocado peptide extract, obtained in example 1, or 10 mM calcium, used as the reference histamine release inhibitor.
The cells were then stimulated for 10 minutes by 10 μM substance P (Neosystem) in the presence of 0.3 mM calcium.
The reaction was quenched by centrifugation and the supernatants and cell pellets were taken up in 0.8 N perchloric acid in order to assay histamine using the spectrofluorometric method.
The quantities of histamine released were expressed as a percentage of release (quantity in supernatants/total quantity).

[2] = system: Normal human epidermal keratinocytes (NHEK); assay: Synthesis of GAGs by keratinocytes (35S-sulfate incorporation); conditions: 72 hours
Procedure: (§2) Normal human epidermal keratinocytes (NHEK) were pre-cultured for 24 hours at 37° C. and 5% CO2 in low-calcium (0.09 mM) SFM (Invitrogen) medium supplemented with 0.25 ng/ml EGF (Invitrogen), 25 μg/ml pituitary extract (Invitrogen) and 25 μg/ml gentamycin (Sigma).
(§3) The keratinocytes were then treated for 72 hours with the avocado peptide extract (0.05% DM and 0.005% DM), according to example 1, or by the references: 0.1 μM retinoic acid (Sigma) or 1.5 mM calcium (Prolabo). Two identical series were prepared in order to assay both the release/production of hyaluronic acid and the incorporation of […] in the GAGs fraction. The batch corresponding to the assay of the GAGs was supplemented with ^35S-sulfate (Amersham) after 48 hours of culture (labeling during the last 24 hours).
At the end of the treatment, in the batch corresponding to the assay of GAGs, the incorporated radioactivity was counted and thus the variation in the synthesis of GAGs in relation to the control was analyzed.
(§4) Intergroup comparisons were carried out by analysis of variance using Dunnett's multiple comparison test.

[3] = system: Rat peritoneal mast cells; assay: Release of tryptase by mast cells induced by calcium ionophore A23187; conditions: 50 μM quercetin
Procedure: as §1
Rat peritoneal mast cells (2×10^3 cells/ml) were incubated for 30 minutes at 37° C. in the presence or absence of 0.005% (w/v) avocado peptide extract (obtained in example 1) or 50 μM quercetin (Sigma), the reference tryptase release inhibitor. The cells were then stimulated for 15 minutes by 0.5 μM calcium ionophore A23187 (Millipore). The calcium ionophore is used to induce the release of tryptase (it induces an influx and mobilization of intracellular calcium). The reaction was quenched by centrifugation at 4° C.
Tryptase release was evaluated by assaying tryptase in the cell pellets and supernatants by means of the Mast Cell Degranulation Assay Kit (Millipore). This test is based on the spectrophotometric detection of the chromophore p-nitroaniline (pNA) after cleavage of the tosyl-gly-pro-lys-pNA substrate by tryptase.

[4] = system: Normal human epidermal keratinocytes (NHEK); assay: Synthesis/release of hyaluronic acid by keratinocytes (ELISA); conditions: 0.1 μM retinoic acid, 72 hours, culture supernatants
Procedure: as §2, §3
In the batch corresponding to the assay of hyaluronic acid, at the end of the treatment, the culture supernatants were collected and hyaluronic acid was assayed using a specific modified ELISA test (Biogenic).
as §4

PAR-2 = PAR-2 gene expression in reconstructed epidermises (cDNA arrays); conditions: 1 μM retinoic acid, 6 hours
Procedure: Seventeen-day reconstructed epidermises (Skinethic) were treated systemically with 0.04% (w/v) avocado peptide extract (obtained in example 1) or 1 μM retinoic acid (Sigma, positive reference) for 6 hours.
Gene expression was analyzed using standard simplified DNA arrays. These microarrays involved spotting specific cDNA markers of interest on nylon membranes. Analysis was carried out according to a suitable miniaturized and optimized technology based on the use of messenger RNA and ^33P labeling.
When culturing was complete, the epidermises were rinsed with phosphate buffered saline (PBS) solution. The total RNA of the epidermises was then extracted and purified using TRI Reagent (Sigma) according to a standardized protocol. RNA quantity and quality were then evaluated using an Agilent 2100 bioanalyzer. The mRNA of each culture was reverse transcribed using oligo(dT) and a ^33P-labeled deoxyribonucleotide triphosphate. Multiple labeled cDNA “target” sequences were prepared for each culture. These targets were then hybridized, under optimized conditions, with cDNA “probes” in excess bound to membranes. After washing, the relative quantity of labeled target was measured by direct counting using a Phosphorlmager.
The membranes were analyzed using suitable software.

[Ca+2] [calcium]
Histamine (% release) Mean ([1]; 10 mM calcium (reference inhibitor), stimulated 10 min by 10 μM substance P): 16 % release
Percentage inhibition of histamine release ([1]; calcium, 10 μM in table 8, 10 mM in text, vs stimulated control (substance P)): −78%
Incorporation of 35S-sulfate (cpm) ([2]; 1.5 mM calcium): 17753 cpm

O=c1c(O)c(-c2ccc(O)c(O)c2)oc2cc(O)cc(O)c12 [quercetin]
Tryptase (ng/ml) Mean ([3]; 30 min preincubation, stimulated 15 min by 0.5 μM calcium ionophore A23187): 44 ng/mL
inhibition at 50 µM ([3]; Rattus norvegicus, Mast cell, vs stimulated control (Ca ionophore), read-out: Percentage inhibition of tryptase release): 47%

CC1=C(/C=C/C(C)=C/C=C/C(C)=C/C(=O)O)C(C)(C)CCC1 [retinoic acid]
HA [4]: 11503 ng/mL
PAR-2 (relative expression) Mean (PAR-2; systemic treatment): 3
Percentage inhibition of PAR-2 gene expression (PAR-2; vs control epidermises): −29%
Incorporation of 35S-sulfate (cpm) ([2]; 0.1 μM retinoic acid): 13217 cpm
Percentage (change in synthesis of GAGs vs control cells) ([2]; 0.1 μM retinoic acid): +18%
